Laboratory results published in patent US10000488B2, “Heterocyclic compound” (TAKEDA PHARMACEUTICAL COMPANY LIMITED, priority 2014, dated 2018).
Like-named read-outs stand apart in the source and are kept apart here.

What was measured:
[1] = target: T1, RORγt (Homo sapiens, UniProt P51449); assay: Jurkat reporter test (human IL-17 ROR response element luciferase reporter, RORγt vector); type: cell-based; settings: Jurkat cells; for inhibition at 3 µM: test compound 3 μM, read-out: luminescence level inhibitory rate (%) at test compound 3 μM
T1 sequence (P51449 1-497 isoform P51449-2): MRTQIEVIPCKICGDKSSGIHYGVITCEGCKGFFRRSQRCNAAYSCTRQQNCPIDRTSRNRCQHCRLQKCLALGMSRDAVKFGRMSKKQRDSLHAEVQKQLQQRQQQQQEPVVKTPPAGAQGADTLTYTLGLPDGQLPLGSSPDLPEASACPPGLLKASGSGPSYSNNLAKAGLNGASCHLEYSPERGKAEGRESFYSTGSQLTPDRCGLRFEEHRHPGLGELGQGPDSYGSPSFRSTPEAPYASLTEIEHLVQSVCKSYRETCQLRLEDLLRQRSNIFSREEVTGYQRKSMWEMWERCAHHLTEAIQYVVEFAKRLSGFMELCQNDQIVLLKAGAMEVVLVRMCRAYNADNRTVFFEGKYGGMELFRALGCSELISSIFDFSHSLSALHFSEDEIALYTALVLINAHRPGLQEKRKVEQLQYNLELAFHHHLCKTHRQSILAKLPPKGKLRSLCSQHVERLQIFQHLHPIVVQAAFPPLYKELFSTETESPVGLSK
Procedure: The Jurkat cells used for the reporter test were cultured in a culture medium (RPMI (Invitrogen), 10% FCS (AusGeneX), 100 U/mL penicillin, 100 μg/mL streptomycin). On the day of the test, 4×10^7 cells were recovered by a centrifugal operation (1000 rpm, for 5 min) and suspended in PBS (phosphate buffered saline) (Invitrogen). Thereafter, the cells were recovered again by a centrifugal operation, and suspended in 2 mL of R buffer (NEON transfection kit, Invitrogen). […] Gene transfer was performed by Electroporation apparatus (NEON, Invitrogen) under the conditions of pulse voltage 1350 V, interval 10 milliseconds, number of times 3. The cells after gene transfer were suspended in 40 mL of a reaction medium (RPMI, 10% Lipid reduced FCS (HyClone), 10 mM HEPES (pH 7.5), 100 U/mL penicillin, 100 μg/mL streptomycin, 5 μM lovastatin), and plated in a 96 well plate by 90 μL. A test compound diluted with the reaction medium was added by 10 μL, and the cells were cultured overnight in an incubator. Bright-Glo (Promega) was added by 100 μL, and the mixture was stirred at room temperature for 10 min, and the luminescence level was measured by Envision (PerkinElmer).

[2] = target: T1, RORγt; assay: RORγt binding test using fluorescent-labeled synthetic ligand (TR-FRET); settings: for inhibition at 1 µM: test compound 1 μM, read-out: binding inhibitory rate (%) of fluorescent-labeled synthetic ligand to RORγt at test compound 1 μM
Procedure: RORγt Binding Test Using Fluorescent-Labeled Synthetic Ligand
The binding activity of the test compound to RORγt was measured by a time resolved fluorescence resonance energy transfer (TR-FRET) utilizing histidine-tagged RORγt, fluorescent-labeled synthetic ligand, and terbium-labeled anti-histidine tag antibody (Invitrogen). First, a test compound diluted with an assay buffer (20 mM Tris-HCl (pH 7.5), 100 mM NaCl, 1 mM DTT, 0.1% BSA) was added to a 384 well plate by 3 μL. Then, RORγt diluted with an assay buffer to 240 nM was added by 3 μL, after which fluorescent-labeled synthetic ligand diluted with the assay buffer to 12 μM was added by 3 μL, and the mixture was stood at room temperature for 20 min. Thereafter, a terbium-labeled anti-histidine tag antibody diluted with the assay buffer to 8 nM was added by 3 μL. The mixture was stood at room temperature for 20 min, and fluorescence intensity (excitation wavelength 320 nm, fluorescence wavelength 520 nm, delay time 100 microseconds) was measured by Envision (PerkinElmer).

[3] = target: T1, RORγt; assay: Cofactor recruitment test (Alpha Screen, biotinylated SRC-1 peptide); type: biochemical; settings: read-out: signal value inhibitory rate (%) at test compound 1 μM
Procedure: Cofactor Recruitment Test
Cofactor recruitment test was performed by Alpha Screen (Histidine Detection Kit, PerkinElmer) method. First, a test compound was diluted with an assay buffer (50 mM Tris-HCl (pH 7.5), 50 mM KCl, 1 mM DTT, 0.1% BSA) and added to a 384 well plate by 5 μL. […] The mixture was stood in a dark place for 1 hr, and the signal value was measured by Envision (PerkinElmer).

Row | SMILES | inhibition at 3 µM [1] [%] | inhibition at 1 µM [2] [%] | inhibition at 1 µM [3] [%] | luminescence level inhibitory rate (%) at test compound 3 μM [1] [%] | binding inhibitory rate (%) of fluorescent-labeled synthetic ligand to RORγt at test compound 1 μM [2] [%] | binding inhibitory rate (%) of fluorescent-labeled synthetic ligand to RORγt at test compound 1 μM ([2]; 1 µM) [%]
1 | CC(C)n1c(=O)n(CC2CC2)c(=O)c2cc(NC(=O)N3CCC[C@@H](NC(=O)c4ccc(Cl)cc4)C3)ccc21 [Example 247, (3R)-3-((4-chlorobenzoyl)amino)-N-(3-(cyclopropylmethyl)-1-isopropyl-2,4-dioxo-1,2,3,4-tetrahydroquinazolin-6-yl)piperidine-1-carboxamide] | 103 | 102 | 107 | – | – | –
2 | COC(=O)c1cccc(C(=O)NC2CCCN(C(=O)Nc3ccc4c(c3)c(=O)n(CC3CC3)c(=O)n4C(C)C)C2)c1 (stereo not shown) [Example 113, methyl 3-((1-((3-(cyclopropylmethyl)-1-isopropyl-2,4-dioxo-1,2,3,4-tetrahydroquinazolin-6-yl)carbamoyl)piperidin-3-yl)carbamoyl)benzoate] | 102 | 102 | 109 | – | – | –
3 | CC(C)n1c(=O)n(CC2CC2(F)F)c(=O)c2cc(NC(=O)N3CCOC(C(=O)Nc4ccc(C#N)c(Cl)c4)C3)c(F)cc21 (single isomer, unassigned) [Example 366, (2R)—N^2-(3-chloro-4-cyanophenyl)-N^4-(3-(((1R or 1S)-2,2-difluorocyclopropyl)methyl)-7-fluoro-1-isopropyl-2,4-dioxo-1,2,3,4-tetrahydroquinazolin-6-yl)morpholine-2,4-dicarboxamide (one stereoisomer, quinazolinedione: derived from tR1)] | 108 | 102 | 105 | – | – | –
4 | CC(C)n1c(=O)n(CC2CC2(F)F)c(=O)c2cc(NC(=O)N3CCOC(C(=O)Nc4cnc(C#N)c(Cl)c4)C3)c(F)cc21 (mixture of isomers) [Example 356, (2R)—N^2-(5-chloro-6-cyanopyridin-3-yl)-N^4-(3-((2,2-difluorocyclopropyl)methyl)-7-fluoro-1-isopropyl-2,4-dioxo-1,2,3,4-tetrahydroquinazolin-6-yl)morpholine-2,4-dicarboxamide (mixture of two stereoisomers)] | 107 | 102 | 108 | – | – | –
5 | CC(C(F)F)n1c(=O)n(CC2CC2)c(=O)c2cc(NC(=O)N3CCOC(C(=O)Nc4ccc(C#N)c(Cl)c4)C3)c(F)cc21 [Example 373, (2R)-N^2-(3-chloro-4-cyanophenyl)-N^4-(3-(cyclopropylmethyl)-1-(1,1-difluoropropan-2-yl)-7-fluoro-2,4-dioxo-1,2,3,4-tetrahydro-quinazolin-6-yl)morpholine-2,4-dicarboxamide (one stereoisomer, quinazolinedione: derived from tR2)] | – | – | – | – | – | 97
6 | CC(C(F)F)n1c(=O)n(CC2CC2)c(=O)c2cc(NC(=O)N3CCCC(n4cnc5cc(C#N)ccc5c4=O)C3)c(F)cc21 [Example 374, (3R)-3-(7-cyano-4-oxoquinazoline-3(4H)-yl)-N-(3-(cyclopropylmethyl)-1-(1,1-difluoropropan-2-yl)-7-fluoro-2,4-dioxo-1,2,3,4-tetrahydro-quinazolin-6-yl)piperidine-1-carboxamide (one stereoisomer, quinazolinedione: derived from tR2)] | – | – | – | – | – | 102
7 | CC(C(F)F)n1c(=O)n(CC2CC2)c(=O)c2cc(NC(=O)N3CCOC(C(=O)Nc4ccc(C#N)c(Cl)c4)C3)c(F)cc21 [Example 371, (2R)-N^2-(3-chloro-4-cyanophenyl)-N^4-(3-(cyclopropylmethyl)-1-(1,1-difluoropropan-2-yl)-7-fluoro-2,4-dioxo-1,2,3,4-tetrahydro-quinazolin-6-yl)-morpholine-2,4-dicarboxamide (one stereoisomer, quinazolinedione: derived from tR1)] | – | 95 | – | – | – | –

Now from value to compound, other results behind:

Row | inhibition at 3 µM [1] [%] | inhibition at 1 µM [2] [%] | inhibition at 1 µM [3] [%] | luminescence level inhibitory rate (%) at test compound 3 μM [1] [%] | binding inhibitory rate (%) of fluorescent-labeled synthetic ligand to RORγt at test compound 1 μM [2] [%] | SMILES | binding inhibitory rate (%) of fluorescent-labeled synthetic ligand to RORγt at test compound 1 μM ([2]; 1 µM) [%]
8 | 101 | 102 | 108 | – | – | Cc1ccc(F)c(C(=O)N[C@@H]2CCCN(C(=O)Nc3cc4c(=O)n(CC5CC5)c(=O)n(C(C)C)c4cc3F)C2)c1 [Example 283, (3R)-N-(3-(cyclopropylmethyl)-7-fluoro-1-isopropyl-2,4-dioxo-1,2,3,4-tetrahydroquinazolin-6-yl)-3-((2-fluoro-5-methylbenzoyl)amino)piperidine-1-carboxamide] | –
9 | 103 | 102 | 106 | – | – | CC(C)n1c(=O)n(CC2CC2)c(=O)c2cc(NC(=O)N3CCC[C@@H](n4cnc5cc(C#N)ccc5c4=O)C3)c(F)cc21 [Example 324, (3R)-3-(7-cyano-4-oxoquinazoline-3(4H)-yl)-N-(3-(cyclopropylmethyl)-7-fluoro-1-isopropyl-2,4-dioxo-1,2,3,4-tetrahydroquinazolin-6-yl)piperidine-1-carboxamide] | –
10 | 99 | 102 | 113 | – | – | CC(C)n1c(=O)n(CC2CC2)c(=O)c2cc(NC(=O)N3CCOC(C(=O)Nc4cc(F)c(C#N)cc4F)C3)ccc21 (stereo not shown) [Example 135, N^2-(4-cyano-2,5-difluorophenyl)-N^4-(3-(cyclopropylmethyl)-1-isopropyl-2,4-dioxo-1,2,3,4-tetrahydroquinazolin-6-yl)morpholine-2,4-dicarboxamide] | –
11 | – | 101 | – | – | – | CC(C(F)F)n1c(=O)n(CC2CC2)c(=O)c2cc(NC(=O)N3CCCC(n4cnc5cc(C#N)ccc5c4=O)C3)c(F)cc21 [Example 372, (3R)-3-(7-cyano-4-oxoquinazoline-3(4H)-yl)-N-(3-(cyclopropylmethyl)-1-(1,1-difluoropropan-2-yl)-7-fluoro-2,4-dioxo-1,2,3,4-tetrahydro-quinazolin-6-yl)piperidine-1-carboxamide (one stereoisomer, quinazolinedione: derived from tR1)] | –
12 | – | 95 | – | – | – | CC(C)n1c(=O)n(CC2CC2)c(=O)c2cc(NC(=O)N3CCC(F)(F)C(n4cnc5cc(C#N)ccc5c4=O)C3)c(F)cc21 (stereo not drawn) [Example 375, 3-(7-cyano-4-oxoquina-zoline-3(4H)-yl)-N-(3-(cyclopropylmethyl)-7-fluoro-1-isopropyl-2,4-dioxo-1,2,3,4-tetrahydro-quinazolin-6-yl)-4,4-difluoropiperidine-1-carboxamide (one stereoisomer, piperidine: derived from tR1)] | –
13 | 103 | 102 | 105 | – | – | Cc1ccc(C(=O)N[C@@H]2CCCN(C(=O)Nc3ccc4c(c3)c(=O)n(CC3CC3)c(=O)n4C(C)C)C2)s1 [Example 242, (3R)-N-(3-(cyclopropylmethyl)-1-isopropyl-2,4-dioxo-1,2,3,4-tetrahydroquinazolin-6-yl)-3-(((5-methyl-2-thienyl)carbonyl)amino)piperidine-1-carboxamide] | –
14 | – | – | – | 110 | 102 | CC(C)n1c(=O)n(CC2CC2(F)F)c(=O)c2cc(NC(=O)N3CCCC(n4cnc5cc(C#N)ccc5c4=O)C3)c(F)cc21 (single isomer, unassigned) [Example 369, (3R)-3-(7-cyano-4-oxoquinazoline-3(4H)-yl)-N-(3-(((1R or 1S)-2,2-difluorocyclopropyl)methyl)-7-fluoro-1-isopropyl-2,4-dioxo-1,2,3,4-tetrahydroquinazolin-6-yl)piperidine-1-carboxamide (one stereoisomer, quinazolinedione: derived from tR2)] | –
